Test results taken from EP2647638A1, “Substituted tricyclic compounds with activity towards ep1 receptors” (Almirall, S.A., priority 2012, dated 2013).

Target: T1, human EP1 receptor (Homo sapiens, UniProt P34995)
T1 construct: expressed in transfected cells; host or cells: HEK-293 cell membranes
T1 sequence (P34995 1-402): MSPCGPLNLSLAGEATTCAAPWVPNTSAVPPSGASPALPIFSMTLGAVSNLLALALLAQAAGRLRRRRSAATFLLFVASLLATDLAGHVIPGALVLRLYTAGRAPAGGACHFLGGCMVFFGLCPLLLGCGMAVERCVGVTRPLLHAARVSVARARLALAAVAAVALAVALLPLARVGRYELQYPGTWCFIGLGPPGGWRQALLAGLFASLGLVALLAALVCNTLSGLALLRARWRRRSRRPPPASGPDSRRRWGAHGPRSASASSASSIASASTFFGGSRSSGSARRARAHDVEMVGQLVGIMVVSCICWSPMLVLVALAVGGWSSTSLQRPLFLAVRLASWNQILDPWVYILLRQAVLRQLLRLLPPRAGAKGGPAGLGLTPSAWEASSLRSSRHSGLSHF
Assay: Human EP1 receptor radioligand binding assay
Settings: transfected HEK-293 cell membranes, [3H]-PGE2 (10 nM), pH 6.0, 25 °C for 60 minutes
Method: To investigate binding properties of EP1 receptor ligands to human EP1 receptor, transfected HEK-293 cell membranes and [3H]-PGE2 (Perkin Elmer) were used. In 96-well plates the assay was carried out with a total reaction volume of 250 µl, containing 25 µl of membrane suspension (30 µg protein/well), 25 µl of [3H]-PGE2 (10 nM) in either absence or presence of 25 µl of either buffer or PGE2 (10 µM) for total and non-specific binding, respectively. Binding buffer contained 10 mM MES, 1 mM MgCl2 and 1 mM EDTA at pH 6.0. Plates were incubated at 25 °C for 60 minutes. After the incubation period, 200 µl of incubate were transferred to MultiScreen HTS, FB plates (Millipore), filtered and plates were washed 6 times with ice-cold 10 mM MES, 1 mM MgCl2 and 1 mM EDTA at pH 6.0. Filters were dried and counted in a MicroBeta scintillation counter (Perkin-Elmer) using EcoScint liquid scintillation cocktail.
Percentage inhibition was calculated relating compounds activity to the 0% inhibition of the wells incubated with 10 nM [3H]-PGE2 alone (total binding) and 100% inhibition of the wells incubated with 10 nM [3H]-PGE2 plus 10 µM PGE2 (non-specific binding). Competition binding curves were carried out by assaying 6 different concentrations with duplicated points. The inhibition constant (Ki) of each compound was calculated by the Cheng-Prusoff equation: Kl = IC50 /(1+⌊L⌋/KD) [formula] where IC50 is the concentration of compound that displaces the binding of radioligand by 50%, [L] is the free concentration of radioligand and KD is the dissociation constant of each radioligand. IC50 values were obtained by fitting the data with non-linear regression using XIFit software (IDBS).

Row | Ki [nM] | SMILES
1 | > 500 | O=C(O)c1ccc([C@@H]2Nc3ccc(Br)cc3[C@@H]3OCCC[C@H]23)cc1 [Example 2, 4-((4aR,5R,10bR)-9-bromo-3,4,4a,5,6,10b-hexahydro-2H-pyrano[3,2-c]quinolin-5-yl)benzoic acid]
2 | 100 to 500 | COc1ccc2c(c1)[C@@H]1OCCC[C@@H]1[C@H](c1ccc(C(=O)O)cc1C)N2 [Example 5, 4-((4aR, 5R, 10bR)-3,4,4a, 5,6, 10b-hexahydro-9-methoxy-2H pyrano[3,2-c]quinolin-5-yl)-3-methylbenzoic acid]
3 | < 100 | Cc1cc(C(=O)O)ccc1[C@H]1Nc2ccc(Cl)cc2[C@@H]2OCCC[C@H]12 (racemic) [Example 10, 4-((4aR, 5S, 10bR)-9-chloro-3,4,4a, 5,6, 10b-hexahydro-2H pyrano[3,2-c]quinolin-5-yl)-3-methylbenzoic acid]
4 | 100 to 500 | Cc1ccc2c(c1)[C@@H]1OCCC[C@@H]1[C@H](c1ccc(C(=O)O)cc1C)N2 [Example 6, 4-((4aR, 5R, 10bR)-3,4,4a, 5,6, 10b-hexahydro-9-methyl-2H pyrano[3,2-c]quinolin-5-yl)-3-methylbenzoic acid]
